Reference: publication PMC8459971, “Evaluation of the hepatotoxicity of the novel GPR40 (FFAR1) agonist CPL207280 in the rat and monkey” (PLoS ONE, 2021)
Like-named read-outs stand apart in the source and are kept apart here.

System: HepaRG spheroids
Experiment: HepaRG 3D spheroids, cell and mitochondrial health markers, 14 days
Details: TIMEPOINT 336
[1] = HepaRG spheroid, at the concentration (uM) given
[2] = HepaRG spheroid, plotted value at the concentration given

Experimental: Hepatic spheroids were formed by seeding HepaRG™ cells into round-bottom ultra-low adhesion 96-well spheroid plates (Corning®) in 3D liver media with 0.5% DMSO, 100 U/mL penicillin, and 100 mg/L streptomycin. Cells were incubated at 37°C and 5% CO2 until spheroid formation and then compound-treated. The test compound was diluted in the vehicle, and serial dilutions were made in a 0.5% vehicle in HepaRG™ induction media. […] L-buthionine sulfoximine was used as positive control for GSH content, whereas rotenone was simultaneously used as a positive control for mitochondrial dysfunction and ATP content. At the end of the incubation period, the cells were loaded with the relevant dye for each cell health marker: DNA structure–Hoescht, GSH content–mBCL, ROS formation–DHE, mitochondrial dysfunction–MitoTracker, and cellular ATP content–CellTiter-Glo®, Promega. The plate was then scanned using an automated confocal fluorescent cellular imager, ArrayScan® XTI (Thermo Scientific Cellomics) at 37°C and 5% CO2. Further, the cellular ATP content was measured using CellTiter-Glo® (Promega, USA).

**Q.** For `N#CC(C#N)=NNc1cccc(Cl)c1` [carbonyl cyanide 3-chlorophenylhydrazone], which “Cellular ATP Mean Plotted Value” (CONC 0.04 uM) is on record?
**A.** 1.06

**Q.** And the “DNA structure Mean Plotted Value” (CONC 0.04 uM)?
**A.** 0.942

**Q.** What about the “Glutathione content Mean Plotted Value” (CONC 0.04 uM) of the same compound?
**A.** 0.925

**Q.** What about the “Mitochondrial mass Mean Plotted Value” (CONC 0.04 uM) of the same compound?
**A.** 1.13

**Q.** And the “Mitochondrial membrane potential Mean Plotted Value” (CONC 0.04 uM)?
**A.** 1.05

**Q.** What about the “Oxidative stress Mean Plotted Value” (CONC 0.04 uM) of the same compound?
**A.** 1.02

**Q.** And the “Spheroid count Mean Plotted Value” (CONC 0.04 uM)?
**A.** 1

**Q.** What about the “Spheroid size Mean Plotted Value” (CONC 0.04 uM) of the same compound?
**A.** 1.01

**Q.** And the “Cellular ATP Mean Plotted Value” (CONC 0.1 uM)?
**A.** 1.01

**Q.** And the “DNA structure Mean Plotted Value” (CONC 0.1 uM)?
**A.** 1.05

**Q.** What about the “Glutathione content Mean Plotted Value” (CONC 0.1 uM) of the same compound?
**A.** 0.914

**Q.** And the “Mitochondrial mass Mean Plotted Value” (CONC 0.1 uM)?
**A.** 1.06

**Q.** What about the “Mitochondrial membrane potential Mean Plotted Value” (CONC 0.1 uM) of the same compound?
**A.** 1.15

**Q.** And the “Oxidative stress Mean Plotted Value” (CONC 0.1 uM)?
**A.** 1

**Q.** And the “Spheroid count Mean Plotted Value” (CONC 0.1 uM)?
**A.** 1

**Q.** What about the “Spheroid size Mean Plotted Value” (CONC 0.1 uM) of the same compound?
**A.** 1.04

**Q.** And the “Cellular ATP Mean Plotted Value” (CONC 0.4 uM)?
**A.** 0.966

**Q.** And the “DNA structure Mean Plotted Value” (CONC 0.4 uM)?
**A.** 1.07

**Q.** And the “Glutathione content Mean Plotted Value” (CONC 0.4 uM)?
**A.** 0.993

**Q.** What about the “Mitochondrial mass Mean Plotted Value” (CONC 0.4 uM) of the same compound?
**A.** 0.994

**Q.** And the “Mitochondrial membrane potential Mean Plotted Value” (CONC 0.4 uM)?
**A.** 1.07

**Q.** What about the “Oxidative stress Mean Plotted Value” (CONC 0.4 uM) of the same compound?
**A.** 0.993

**Q.** What about the “Spheroid count Mean Plotted Value” (CONC 0.4 uM) of the same compound?
**A.** 1

**Q.** And the “Spheroid size Mean Plotted Value” (CONC 0.4 uM)?
**A.** 0.969

**Q.** And the “Cellular ATP Mean Plotted Value” (CONC 1 uM)?
**A.** 0.843

**Q.** What about the “DNA structure Mean Plotted Value” (CONC 1 uM) of the same compound?
**A.** 0.905

**Q.** What about the “Glutathione content Mean Plotted Value” (CONC 1 uM) of the same compound?
**A.** 0.819

**Q.** And the “Mitochondrial mass Mean Plotted Value” (CONC 1 uM)?
**A.** 1.11

**Q.** And the “Mitochondrial membrane potential Mean Plotted Value” (CONC 1 uM)?
**A.** 0.995

**Q.** And the “Oxidative stress Mean Plotted Value” (CONC 1 uM)?
**A.** 1.12

**Q.** And the “Spheroid count Mean Plotted Value” (CONC 1 uM)?
**A.** 1

**Q.** And the “Spheroid size Mean Plotted Value” (CONC 1 uM)?
**A.** 0.994

**Q.** What about the “Cellular ATP Mean Plotted Value” (CONC 4 uM) of the same compound?
**A.** 0.0197

**Q.** What about the “DNA structure Mean Plotted Value” (CONC 4 uM) of the same compound?
**A.** 0.726

**Q.** And the “Glutathione content Mean Plotted Value” (CONC 4 uM)?
**A.** 0.176

**Q.** And the “Mitochondrial mass Mean Plotted Value” (CONC 4 uM)?
**A.** 0.851

**Q.** What about the “Mitochondrial membrane potential Mean Plotted Value” (CONC 4 uM) of the same compound?
**A.** 0.876

**Q.** And the “Oxidative stress Mean Plotted Value” (CONC 4 uM)?
**A.** 1.36

**Q.** What about the “Spheroid count Mean Plotted Value” (CONC 4 uM) of the same compound?
**A.** 1

**Q.** And the “Spheroid size Mean Plotted Value” (CONC 4 uM)?
**A.** 0.828

**Q.** And the “Cellular ATP Mean Plotted Value” (CONC 10 uM)?
**A.** -0.000228

**Q.** What about the “DNA structure Mean Plotted Value” (CONC 10 uM) of the same compound?
**A.** 0.0956

**Q.** What about the “Glutathione content Mean Plotted Value” (CONC 10 uM) of the same compound?
**A.** 0.111

**Q.** What about the “Mitochondrial mass Mean Plotted Value” (CONC 10 uM) of the same compound?
**A.** 0.763

**Q.** What about the “Mitochondrial membrane potential Mean Plotted Value” (CONC 10 uM) of the same compound?
**A.** 0.627

**Q.** And the “Oxidative stress Mean Plotted Value” (CONC 10 uM)?
**A.** 1.36

**Q.** And the “Spheroid count Mean Plotted Value” (CONC 10 uM)?
**A.** 1

**Q.** What about the “Spheroid size Mean Plotted Value” (CONC 10 uM) of the same compound?
**A.** 0.751

**Q.** And the “Cellular ATP Mean Plotted Value” (CONC 40 uM)?
**A.** -0.000179

**Q.** What about the “DNA structure Mean Plotted Value” (CONC 40 uM) of the same compound?
**A.** 0.0736

**Q.** And the “Glutathione content Mean Plotted Value” (CONC 40 uM)?
**A.** 0.0824

**Q.** And the “Mitochondrial mass Mean Plotted Value” (CONC 40 uM)?
**A.** 0.515

**Q.** And the “Mitochondrial membrane potential Mean Plotted Value” (CONC 40 uM)?
**A.** 0.236

**Q.** What about the “Oxidative stress Mean Plotted Value” (CONC 40 uM) of the same compound?
**A.** 0.339

**Q.** And the “Spheroid count Mean Plotted Value” (CONC 40 uM)?
**A.** 1

**Q.** What about the “Spheroid size Mean Plotted Value” (CONC 40 uM) of the same compound?
**A.** 0.674

**Q.** And the “Cellular ATP Mean Plotted Value” (CONC 100 uM)?
**A.** 8.57e-5

**Q.** What about the “DNA structure Mean Plotted Value” (CONC 100 uM) of the same compound?
**A.** 0.0501

**Q.** What about the “Glutathione content Mean Plotted Value” (CONC 100 uM) of the same compound?
**A.** 0.0467

**Q.** And the “Mitochondrial mass Mean Plotted Value” (CONC 100 uM)?
**A.** 0.488

**Q.** And the “Mitochondrial membrane potential Mean Plotted Value” (CONC 100 uM)?
**A.** 0.132

**Q.** What about the “Oxidative stress Mean Plotted Value” (CONC 100 uM) of the same compound?
**A.** 0.234

**Q.** What about the “Spheroid count Mean Plotted Value” (CONC 100 uM) of the same compound?
**A.** 1

**Q.** And the “Spheroid size Mean Plotted Value” (CONC 100 uM)?
**A.** 0.58

**Q.** And the “Cellular ATP MEC” value (HepaRG spheroid)?
**A.** 0.829 µM

**Q.** And the “DNA structure MEC” value (HepaRG spheroid)?
**A.** 3.51 µM

**Q.** And the “Glutathione content MEC” value (HepaRG spheroid)?
**A.** 0.876 µM

**Q.** What about the “Mitochondrial mass MEC” value (HepaRG spheroid) of the same compound?
**A.** 6.35 µM

**Q.** What about the “Mitochondrial membrane potential MEC” value (HepaRG spheroid) of the same compound?
**A.** 5.82 µM

**Q.** What about the “Oxidative stress MEC” value (HepaRG spheroid) of the same compound?
**A.** 1.46 µM

**Q.** What about the “Spheroid size MEC” value (HepaRG spheroid) of the same compound?
**A.** 2.63 µM

**Q.** What about the “Cellular ATP MR (% @ concentration)” value [1] of the same compound?
**A.** 100%

**Q.** And the “DNA structure MR (% @ concentration)” value [1]?
**A.** 95%

**Q.** And the “Glutathione content MR (% @ concentration)” value [1]?
**A.** 91%

**Q.** What about the “Mitochondrial mass MR (% @ concentration)” value [1] of the same compound?
**A.** 52%

**Q.** What about the “Mitochondrial membrane potential MR (% @ concentration)” value [1] of the same compound?
**A.** 88%

**Q.** What about the “Oxidative stress MR (% @ concentration)” value [1] of the same compound?
**A.** 37%

**Q.** And the “Spheroid size MR (% @ concentration)” value [1]?
**A.** 35%

**Q.** What about the “Cellular ATP MR” value [2] of the same compound?
**A.** -0.000228

**Q.** And the “DNA structure MR” value [2]?
**A.** 0.0501

**Q.** And the “Glutathione content MR” value [2]?
**A.** 0.0824

**Q.** And the “Mitochondrial mass MR” value [2]?
**A.** 0.515

**Q.** And the “Mitochondrial membrane potential MR” value [2]?
**A.** 0.132

**Q.** And the “Oxidative stress MR” value [2]?
**A.** 1.36

**Q.** What about the “Spheroid size MR” value [2] of the same compound?
**A.** 0.674

**Q.** What about the AC50 (read-out: Cellular ATP AC50, HepaRG spheroid) of the same compound?
**A.** 1.63 µM

**Q.** And the AC50 (read-out: DNA structure AC50, HepaRG spheroid)?
**A.** 5.13 µM

**Q.** And the AC50 (read-out: Glutathione content AC50, HepaRG spheroid)?
**A.** 2.19 µM

**Q.** What about the AC50 (read-out: Mitochondrial mass AC50, HepaRG spheroid) of the same compound?
**A.** 35.7 µM

**Q.** And the AC50 (read-out: Mitochondrial membrane potential AC50, HepaRG spheroid)?
**A.** 12.4 µM

**Q.** And the AC50 (read-out: Oxidative stress AC50, HepaRG spheroid)?
**A.** 15.4 µM

**Q.** And the AC50 (read-out: Spheroid count AC50, HepaRG spheroid)?
**A.** > 100 µM

**Q.** What about the AC50 (read-out: Spheroid size AC50, HepaRG spheroid) of the same compound?
**A.** > 40 µM
